Patent US8314108B2, “5-(5-(2-(3-aminopropoxy)-6-methoxyphenyl)-1H-pyrazol-3-ylamino)pyrazine-2-carbonitrile, pharmaceutically acceptable salts thereof, or solvate of salts” (Eli Lilly and Company, priority 2008, dated 2012)
Structures can show the parent of a compound that is named as a salt.

Columns and labels:
HT-29 cells = assay: ECtfs (Two-Fold Sensitization) Assay, 3H-thymidine incorporation; format: cell-based
Procedure: The capacity for continued tumor cell proliferation after DNA damage can be analyzed by determining the ability of cells to replicate their DNA. […] Following a recovery period, cells are assayed for the ability to incorporate radioactive thymidine into DNA during S phase. The ECtfs parameter is a measure of the concentration of a Chk1 inhibitor necessary to reduce by half the GI90 concentration of gemcitabine, measured in this assay in the absence of Chk1 inhibition. […] These cells are plated at 1.3×10^3 per well on Corning Costar 96-well tissue culture plates. After plating the cells, the tissue culture plates are held at room temperature for 45 minutes, before returning to 37° C. Plates are incubated for 24 hours prior to gemcitabine addition. Before gemcitabine addition, medium is removed from all wells and replaced with 150 μL per well of fresh RPMI medium. Gemcitabine stocks at 10 mM are prepared in phosphate-buffered saline. Gemcitabine dilutions were prepared at 4× concentrations in RPMI medium and added to wells at 50 μL per well. The highest final concentration of gemcitabine used is 80 μM and dilutions proceed by four-fold steps. Two hours later, gemcitabine-containing medium is removed from the wells and replaced with 150 μL per well of fresh RPMI medium. […] The volume of addition is 50 μL. Compound dilutions proceed by two-fold steps, starting at 5000 nM. […] 20 μL of this solution is added to each well, yielding 1 μCi/well of ^3H-thymidine. Cells are labeled for twenty-two hours. The medium containing ^3H-thymidine is thoroughly removed from the wells. The plates are then frozen at −20° C., for several hours. To harvest the DNA containing incorporated ^3H-thymidine, plates are thawed for several minutes, and then 120 μL per well of 0.1 N NaOH is added to each well. Each plate is then incubated at 37° C., with slow mixing on a rotator, for 10 minutes. […] The wells of the tissue culture plate on which cells had been labeled are washed with water 5×. The Unifilter plate membranes are washed with an additional 4.5 mL per well (3×1.0 mL and finally a 1.5 mL wash). The Unifilter plates are then dried at 37° C. for at least 6 hours. The bottom of each filter plate was sealed with a Backseal adhesive sheet (PerkinElmer), and the 50 μL/well of MicroScint-20 (Perkin Elmer) is added. Each plate is then sealed with a Topseal clear adhesive sheet (PerkinElmer). Plates are counted on a Topcount scintillation counter (PerkinElmer), at 1 minute per well. ^3H-thymidine counts per minute (cpm) are exported into Prism (GraphPad) for analysis and plotting. […] For plotting the data in Prism, the gemcitabine concentrations are transformed to log values, and dose-response curves are fit by non-linear regression. Neither top nor bottom fits are constrained.

[1] = tested on: Calu-6 lung tumor xenograft; assay: Human Tumor Xenograft Model, Calu-6 lung; format: in vivo, nude mice; details: Calu-6 xenograft
Procedure: (§1) The ability of Chk1 inhibitors to effect tumor killing can be determined in vivo using the Calu-6 lung and HT-29 colon tumor xenograft efficacy models. Calu-6 lung cancer cells (ATCC) are cultured in growth media (MEM w/Earle's salts (Invitrogen) with L-glutamine (Gibco™) supplemented with 10% (v/v) heat inactivated FBS (Gibco™), 1×MEM non-essential amino acids (Gibco™), 1× sodium pyruvate (Gibco™)) and HT-29 colon cancer cells (ATCC) are cultured in growth media, (McCoy's 5A medium (Gibco™) supplemented with 10% FBS (Gibco™)) and expanded. Cells are harvested and washed twice with phosphate buffered saline and 5×10^6 cells (HT-29) or 1×10^6 cells (Calu-6) in growth media (without serum) are mixed with equal volume of BD Matrigel™ matrix (BD Bioscience, Franklin, N.J.), then injected subcutaneously into the flank of nude mice (CD-1 nu/nu, from Charles River Labs, Wilmington, Mass.). At about day 16 after implant (150-200 mm^3), gemcitabine is formulated fresh in saline daily and administered to animals by intraperitoneal route at 60 mg/kg dose. […] Tumor response is determined by tumor volume measurement performed twice a week during the course of treatment. Tumor growth inhibition (TGI) is calculated as the percent reduction in mean tumor size of a compound treated group from the mean tumor size of the vehicle-treated control group.

[2] = tested on: HT-29 colon tumor xenograft; assay: Human Tumor Xenograft Model, HT-29 colon; format: in vivo, nude mice; details: HT-29 xenograft
Procedure: as §1

Calu-6 lung xenograft = assay: Single Agent Efficacy Dosing, Calu-6 lung xenograft; format: in vivo, nude mice; details: 15 mg/kg subcutaneously, BID×5 rest 2 days, ×3 cycles
Procedure: The ability of Chk1 inhibitors to effect tumor killing can be determined in vivo using the Calu-6 lung xenograft efficacy model. Calu-6 lung cancer cells (ATCC) are cultured as described above. Cells are harvested and washed twice with phosphate buffered saline and 1×10^6 cells (Calu-6) in growth media (without serum) are mixed with equal volume of BD Matrigel™ matrix (BD Bioscience, Franklin, N.J.), then injected subcutaneously into the flank of nude mice (CD-1 nu/nu, from Charles River Labs, Wilmington, Mass.).

[3] = tested on: Thirty solid tumor cell lines; assay: Monolayer Proliferation and Cytotoxicity Assay (modified propidium iodide assay, Oncotest); format: cell-based; details: 96 h; majority of thirty solid tumor cell lines, 4 days of treatment; read-out: EC50 (growth inhibition of tumor cell lines)
Source text: One measure of potency of a Chk1 inhibitor is its ability to inhibit the proliferation of cancer cells in culture due to uncontrolled replication origin activation. (Conti et al. Cell Cycle 6: 2760-2767, 2007) Determination of Chk1 inhibitor antiproliferative activity in cell lines derived from a broad range of tumor types is indicative of which tumor types may be clinically responsive to chemotherapy with Chk1 inhibitors. The following described cellular proliferation assay is run at Oncotest, GmbH in Germany. Thirty solid tumor cell lines are derived from 13 different tumor histotypes, each represented by 1 to 6 different cell lines (Oncotest, GmbH). […] Briefly, adherent cells are harvested from exponential phase cultures by trypsinization, counted and plated in 96 well flat-bottomed microtiter plates at a cell density depending on the cell line (4.000-20.000 cells/well). […] Finally, PI fluorescence is measured using the Cytofluor 4000 microplate reader (excitation λ=530 nm, emission λ=620 nm) to determine the total viable cell number. Growth inhibition is expressed as Test/Control×100 (% T/C) values. Based on the T/C values, relative IC50 values are determined using non-linear regression (log [conc. of inhibitor] versus response (% T/C)).

[4] = stated jointly for both HT-29 and Calu-6 models

Compound | decrease of the EC50 of gemcitabine (HT-29 cells; 3 nM of the compound of Example 2, HT29 colon carcinoma cells) [fold] | ECtfs value (HT-29 cells; concentration of Chk1 inhibitor necessary to reduce by half the GI90 concentration of gemcitabine, HT-29 cells) [nM] | anti-tumor activity ([1]; dosed alone and in combination with gemcitabine 60 mg/kg, intravenous, Q3Dx4) | increase in tumor growth inhibition over gemcitabine alone [1, 4] | anti-tumor activity ([2]; dosed alone and in combination with gemcitabine 60 mg/kg, intraperitoneal, Q3Dx4) | increase in tumor growth inhibition over gemcitabine alone [2, 4] | growth inhibition compared with the gemcitabine plus compound combination schedule (Calu-6 lung xenograft) | tumor regression (Calu-6 lung xenograft) | EC50 [3] [nM] | EC50 (HT-29 cells; Homo sapiens, HT-29, gemcitabine alone, HT29 colon carcinoma cells) [nM] | percentage of proliferation inhibition (HT-29 cells; gemcitabine alone, HT29 cells) [%]
COc1cccc(OCCCN)c1-c1cc(Nc2cnc(C#N)cn2)n[nH]1 [Example 2, 5-(5-(2-(3-Aminopropoxy)-6-methoxyphenyl)-1H-pyrazol-3-ylamino)pyrazine-2-carbonitrile dihydrogen chloride salt] | 7 | 0.3 | excellent dose dependent anti-tumor activity | six-fold | excellent dose dependent anti-tumor activity | six-fold | superior growth inhibition | Complete tumor regression is rapid and durable | < 20 |  | 
Nc1ccn([C@@H]2O[C@H](CO)[C@@H](O)C2(F)F)c(=O)n1 [gemcitabine, reference compound] |  |  |  |  |  |  |  |  |  | 37 | 52
